Assay results: the NIST ThermoML archive (doi:10.1016/j.jct.2004.12.014)

Experiments:
[1] = excess molar enthalpy (molar enthalpy of mixing); xn = mol fraction of the nth substance listed; conditions: 318.15 K, 101 kPa, Liquid
[2] = xn = mol fraction of the nth substance listed; conditions: 318.15 K, 101 kPa, Liquid

CCCCCCCCCCC [undecane] + CCOC(=O)CC
Conditions	excess molar enthalpy [kcal/mol]	excess molar volume [m3/mol]
[1], x2 = 0.0755	0.0914	–
[1], x2 = 0.1612	0.168	–
[1], x2 = 0.2482	0.238	–
[1], x2 = 0.3331	0.29	–
[1], x2 = 0.4028	0.32	–
[1], x2 = 0.4629	0.336	–
[1], x2 = 0.5094	0.341	–
[1], x2 = 0.5483	0.34	–
[1], x2 = 0.5806	0.336	–
[1], x2 = 0.6255	0.325	–
[1], x2 = 0.6622	0.311	–
[1], x2 = 0.7018	0.292	–
[1], x2 = 0.7511	0.261	–
[1], x2 = 0.7996	0.225	–
[1], x2 = 0.8514	0.177	–
[1], x2 = 0.9026	0.125	–
[1], x2 = 0.9521	0.0667	–
[2], x2 = 0.0488	–	2.1e-07
[2], x2 = 0.1093	–	4.32e-07
[2], x2 = 0.1996	–	6.94e-07
[2], x2 = 0.2885	–	9.21e-07
[2], x2 = 0.3652	–	1.049e-06
[2], x2 = 0.4355	–	1.121e-06
[2], x2 = 0.5015	–	1.154e-06
[2], x2 = 0.5629	–	1.147e-06
[2], x2 = 0.621	–	1.119e-06
[2], x2 = 0.6752	–	1.071e-06
[2], x2 = 0.7242	–	9.82e-07
[2], x2 = 0.7714	–	8.93e-07
[2], x2 = 0.816	–	7.79e-07
[2], x2 = 0.8558	–	6.55e-07
[2], x2 = 0.895	–	5.1e-07
[2], x2 = 0.9301	–	3.49e-07
[2], x2 = 0.9671	–	2.01e-07

CCCCCOC(=O)CC [pentyl propanoate] + CCCCCCCCCCCCC
Conditions	excess molar enthalpy [kcal/mol]	excess molar volume [m3/mol]
[1], x1 = 0.0691	0.0578	–
[1], x1 = 0.1382	0.105	–
[1], x1 = 0.2136	0.151	–
[1], x1 = 0.2861	0.185	–
[1], x1 = 0.3564	0.209	–
[1], x1 = 0.4222	0.224	–
[1], x1 = 0.4822	0.229	–
[1], x1 = 0.5355	0.228	–
[1], x1 = 0.578	0.222	–
[1], x1 = 0.5956	0.219	–
[1], x1 = 0.6423	0.207	–
[1], x1 = 0.6875	0.193	–
[1], x1 = 0.7398	0.171	–
[1], x1 = 0.7927	0.148	–
[1], x1 = 0.8474	0.118	–
[1], x1 = 0.9008	0.0823	–
[1], x1 = 0.9546	0.0415	–
[2], x1 = 0.0877	–	2.09e-07
[2], x1 = 0.1642	–	3.71e-07
[2], x1 = 0.2425	–	5.1e-07
[2], x1 = 0.3196	–	6.05e-07
[2], x1 = 0.3804	–	6.65e-07
[2], x1 = 0.4461	–	6.93e-07
[2], x1 = 0.5107	–	7.04e-07
[2], x1 = 0.5701	–	6.95e-07
[2], x1 = 0.6258	–	6.64e-07
[2], x1 = 0.6801	–	6.16e-07
[2], x1 = 0.7305	–	5.62e-07
[2], x1 = 0.7814	–	4.99e-07
[2], x1 = 0.8272	–	4.41e-07
[2], x1 = 0.8719	–	3.34e-07
[2], x1 = 0.9166	–	2.64e-07
[2], x1 = 0.9578	–	1.29e-07

CCCCCCCCCCCCC [tridecane] + CCOC(=O)CC
Conditions	excess molar enthalpy [kcal/mol]	excess molar volume [m3/mol]
[1], x2 = 0.0944	0.112	–
[1], x2 = 0.189	0.201	–
[1], x2 = 0.282	0.274	–
[1], x2 = 0.366	0.326	–
[1], x2 = 0.4354	0.355	–
[1], x2 = 0.4882	0.367	–
[1], x2 = 0.5339	0.372	–
[1], x2 = 0.5841	0.371	–
[1], x2 = 0.6332	0.361	–
[1], x2 = 0.6564	0.351	–
[1], x2 = 0.6775	0.343	–
[1], x2 = 0.6925	0.335	–
[1], x2 = 0.7364	0.306	–
[1], x2 = 0.7802	0.271	–
[1], x2 = 0.8254	0.228	–
[1], x2 = 0.8702	0.181	–
[1], x2 = 0.9163	0.127	–
[1], x2 = 0.9613	0.0636	–
[2], x2 = 0.0553	–	2.18e-07
[2], x2 = 0.1314	–	4.88e-07
[2], x2 = 0.2286	–	7.67e-07
[2], x2 = 0.3064	–	9.41e-07
[2], x2 = 0.3982	–	1.105e-06
[2], x2 = 0.4702	–	1.178e-06
[2], x2 = 0.5353	–	1.203e-06
[2], x2 = 0.6003	–	1.177e-06
[2], x2 = 0.6545	–	1.134e-06
[2], x2 = 0.7057	–	1.072e-06
[2], x2 = 0.7518	–	9.93e-07
[2], x2 = 0.7964	–	8.81e-07
[2], x2 = 0.8358	–	7.55e-07
[2], x2 = 0.8729	–	6.38e-07
[2], x2 = 0.9066	–	4.97e-07
[2], x2 = 0.9396	–	3.51e-07
[2], x2 = 0.9702	–	2.08e-07
